Measured values taken from US6660690B2, “Seed treatment with combinations of insecticides” (priority 2000, dated 2003).

Legend:
corn plants = assay: Vigor rating of corn plants at 12 DAP before infestation (indication of phytotoxicity); format: in vivo; settings: rating 1=extremely low vigor, 10=highest
Experimental: (§1) A lambda-cyhalothrin seed treatment formulation was prepared by diluting the WARRIOR® T insecticide (Zeneca Ag Products, Wilmington, Del.), which contains 11.4% lambda-cyhalothrin as the active ingredient, into water as a carrier. This formulation was applied for one minute at room temperature to twenty-five grams of Pioneer corn seed (Cultivar PN3394) in a rotostatic seed treater at a rate of 125 g, 250 g or 500 g active ingredient (Al) to 100 kg seed. The treated seeds were allowed to sit uncapped for four to twenty-four hours before planting.
(§2) Treated and untreated seeds (Pioneer hybrid PN3394) were planted in a soil mix consisting of Dupo silt loam, 30% Perlite, 20% coarse sand (WB-10 grade) in six groups of tubs (20 in. L×15 in. W×8 in. D). Twelve seeds were planted per tub and three tubs were planted for each treatment regimen. Soil applications of FORCE® 3GR, which contains 3% tefluthrin granule as the active ingredient, were used for two sets of tubs containing untreated seeds. The FORCE 3GR was applied either in-furrow or incorporated into a 5 inch band on the soil surface at the time of planting. The tubs were overhead irrigated until the plants were infested with black cutworm larvae.
At twelve days after planting (DAP) but before infestation, the overall health of each plant was rated by looking at emergence, height and appearance. This vigor rating gives an indication of any phytotoxicity from the seed or soil treatment. A rating of 1 indicates extremely low vigor while 10 is the highest vigor rating.

black cutworm larvae = assay: Black cutworm feeding damage on corn grown from treated seed or in treated soil (Reference Example 1); format: in vivo; settings: for Plant Defol. 3 DAI / Plant Defol. 7 DAI / Plant Defol. 10 DAI: rating 1=no damage, 10=complete defoliation
Experimental: as §1, §2
The rate of application for the FORCE 3GR was reported in units of grams of the active ingredient per hectare (g/ha), while the rate of application of the WARRIOR T to the seeds was reported in units of grams of the active ingredient per 100 kilograms of the seeds (g/100 kg). Although the conversion of one of these units to the other will vary somewhat according to the type of seed that is being used, the size and weight of the seed, and the density of planting that is used—among other things—an approximate conversion for corn seed can be carried out as follows. Assuming a seed application rate of lambda cyhalothrin of, for example, 125 g/100 kg of seed and a planting density of 15 lbs seed/ac, about 14.7 acres can be planted with 100 kg of the seed. This is an effective application rate of about 8.5 g of lambda cyhalthrin per acre. At 2.47 ac/ha, the seed treatment level of 125 g/100 kg is approximately equivalent to a surface banding treatment at about 21 g/ha.
The corn plants were infested at 12 DAP, which corresponds to late growth stage V1 by placing two black cutworm larvae at ¾ instar on the soil surface near the base of the plant. Plants were rated 3, 7 and 10 days after infestation (DAI) for the number of cut plants, as well as damage from leaf feeding. The percent stand reduction due to plant cutting was calculated by dividing the number of cut plants into the number of plants present at infestation. The foliar feeding injury was evaluated using a rating scale of 1=no damage and 10=complete defoliation.

SMILES: Cc1c(F)c(F)c(COC(=O)[C@@H]2[C@H](/C=C(\Cl)C(F)(F)F)C2(C)C)c(F)c1F (racemic) [Tefluthrin, (2,3,5,6-tetrafluoro-4-methylphenyl)-methyl-(1 alpha, 3 alpha)-(Z)-(±)-3-(2-chloro-3,3,3-trifluoro-1-propenyl)-2,2-dimethylcyclopropanecarboxylate]
- Vigor at 12 DAP (corn plants; soil granule (FORCE 3GR) banded 30 g/ha): 8.7
- Vigor at 12 DAP (corn plants; soil granule (FORCE 3GR) in-furrow 30 g/ha): 9.0
- % Stand Reduct'n 3 DAI (black cutworm larvae; soil granule banded 30 g/ha): 0.0%
- Plant Defol. 3 DAI (black cutworm larvae; soil granule banded 30 g/ha): 1.7
- % Stand Reduct'n 7 DAI (black cutworm larvae; soil granule banded 30 g/ha): 0.0%
- Plant Defol. 7 DAI (black cutworm larvae; soil granule banded 30 g/ha): 1.7
- % Stand Reduct'n 10 DAI (black cutworm larvae; soil granule banded 30 g/ha): 0.0%
- Plant Defol. 10 DAI (black cutworm larvae; soil granule banded 30 g/ha): 0.3
- % Stand Reduct'n 3 DAI (black cutworm larvae; soil granule in-furrow 30 g/ha): 33.9%
- Plant Defol. 3 DAI (black cutworm larvae; soil granule in-furrow 30 g/ha): 5.0
- % Stand Reduct'n 7 DAI (black cutworm larvae; soil granule in-furrow 30 g/ha): 48.0%
- Plant Defol. 7 DAI (black cutworm larvae; soil granule in-furrow 30 g/ha): 6.0
- % Stand Reduct'n 10 DAI (black cutworm larvae; soil granule in-furrow 30 g/ha): 48.0%
- Plant Defol. 10 DAI (black cutworm larvae; soil granule in-furrow 30 g/ha): 5.3

SMILES: CC1(C)[C@H](C(=O)O[C@H](C#N)c2cccc(Oc3ccccc3)c2)[C@@H]1/C=C(\Cl)C(F)(F)F [λ-cyhalothrin, [1 alpha (s), 3 alpha(z)]-cyano(3-phenoxyphenyl) methyl-3-(2-chloro-3,3,3-trifluoro-1-propenyl)-2,2-dimethylcyclopropane carboxylate]
- Vigor at 12 DAP (corn plants; seed treatment 125 g/100 kg): 9.0
- Vigor at 12 DAP (corn plants; seed treatment 250 g/100 kg): 8.3
- Vigor at 12 DAP (corn plants; seed treatment 500 g/100 kg): 8.3
- % Stand Reduct'n 3 DAI (black cutworm larvae; seed treatment 125 g/100 kg): 13.9%
- Plant Defol. 3 DAI (black cutworm larvae; seed treatment 125 g/100 kg): 4.3
- % Stand Reduct'n 7 DAI (black cutworm larvae; seed treatment 125 g/100 kg): 16.7%
- Plant Defol. 7 DAI (black cutworm larvae; seed treatment 125 g/100 kg): 5.0
- % Stand Reduct'n 10 DAI (black cutworm larvae; seed treatment 125 g/100 kg): 19.4%
- Plant Defol. 10 DAI (black cutworm larvae; seed treatment 125 g/100 kg): 3.3
- % Stand Reduct'n 3 DAI (black cutworm larvae; seed treatment 250 g/100 kg): 3.0%
- Plant Defol. 3 DAI (black cutworm larvae; seed treatment 250 g/100 kg): 3.7
- % Stand Reduct'n 7 DAI (black cutworm larvae; seed treatment 250 g/100 kg): 3.0%
- % Stand Reduct'n 7 DAI (black cutworm larvae; seed treatment 250 g/100 kg, listed as lambda-cyhalothrin): 3%
- Plant Defol. 7 DAI (black cutworm larvae; seed treatment 250 g/100 kg): 2.7
- % Stand Reduct'n 10 DAI (black cutworm larvae; seed treatment 250 g/100 kg): 3.0%
- Plant Defol. 10 DAI (black cutworm larvae; seed treatment 250 g/100 kg): 1.7
- % Stand Reduct'n 3 DAI (black cutworm larvae; seed treatment 500 g/100 kg): 0.0%
- Plant Defol. 3 DAI (black cutworm larvae; seed treatment 500 g/100 kg): 2.0
- % Stand Reduct'n 7 DAI (black cutworm larvae; seed treatment 500 g/100 kg): 0.0%
- % Stand Reduct'n 7 DAI (black cutworm larvae; seed treatment 500 g/100 kg, listed as lambda-cyhalothrin): 0%
- Plant Defol. 7 DAI (black cutworm larvae; seed treatment 500 g/100 kg): 2.3
- % Stand Reduct'n 10 DAI (black cutworm larvae; seed treatment 500 g/100 kg): 0.0%
- Plant Defol. 10 DAI (black cutworm larvae; seed treatment 500 g/100 kg): 1.0
